{
  "source": "patent US20250049741A1",
  "about": "“COMPOSITION FOR PREVENTING OR TREATING ALZHEIMER'S DISEASE COMPRISING PHOSPHOLIPASE C ACTIVATOR AS AN ACTIVE INGREDIENT” (Korea University Research and Business Foundation, priority 2021, published 2025)",
  "system": "5XFAD mice",
  "test": "Contextual fear conditioning (CFC), freezing response",
  "assay_type": "in vivo",
  "settings": "m-3M3FBS-injected 5XFAD mice",
  "text": "To test the acute effect of AβO on hippocampal S-eCB mobilization, hippocampal slices from Sprague-Dawley rats (SD, 2 to 3 weeks old, […] Biolink, Co., Ltd., Korea) were used. Male and female rats were used in all in vitro experiments. To test the chronic effect of AβO on hippocampus-dependent memory impairments caused by amyloidosis, the 5XFAD mouse model (6 to 7 months old, #34840-JAX, Jackson Laboratory, USA), which is a mouse model of Alzheimer's disease that mimics AβO depositions, was used. C57BL/6 mice (6 to 7 months old, KOATECH, Korea) were used as wild type (WT) control mice for 5XFAD mice. Male 5XFAD and C57BL/6 mice were used for all in vivo behavioral experiments. […] A ceiling-mounted video camera recorded the behavior activity, and fed the corresponding video into a customized computer software (MATLAB, USA). […] Behavioral mobility data collected during the contextual conditioning experiments were automatically detected using the gray scaling method of EthoVision XT (Noldus, USA). […] Since a body-freezing response (freezing) is considered a conditioned response to CFC during the memory session, the body-freezing response was detected when the threshold was below the 2.0% threshold of mobility. That is, this means that there could be no more than a 2.0% change in the pixels of a detected mouse between the current sample and the previous sample. […]",
  "data": [
    {"smiles": "Cc1cc(C)c(S(=O)(=O)Nc2cccc(C(F)(F)F)c2)c(C)c1", "note": "[m-3M3FBS]", "values": [
      {"measurement": "freezing responses during memory recall compared to DMSO-injected 5XFAD mice", "result": "remarkably increased"}
    ]}
  ]
}
